Results published in US9127233B2, “Device and method for solubilizing, separating, removing and reacting carboxylic acids in oils, fats, aqueous or organic solutions by means of micro-or nanoemulsification” (priority 2010, dated 2015).
Where “and” joins values, the source holds several entries; their conditions need not be identical. Identical values can stand only once. Counter-ions that a name gives are not always drawn. Like-named read-outs stand apart in the source and are kept apart here. Where a SMILES comes first, the peptide text is derived from it.

How the values were obtained:
[1] = pH of aqueous solution of solubilizing compound mixed with oleic acid; type: physicochemical; conditions: solubilizing compound in water with 0.833 mol equivalents of oleic acid
[2] = Estimation of the interaction between oleic acid and the test substance; type: physicochemical
[3] = Dynamic laser light scattering (DLS) of oleic acid micro-/nanoemulsions; type: physicochemical; conditions: for Mean Size by Intensity: DLS, emulsion with oleic acid; for Part: percentage of the peak in the sample
[4] = log P of the test substance
[5] = Estimation of solubility of the test substance in H2O; type: physicochemical
[6] = water (H2O), test substance mixed with oleic acid

Row | Compound | pH [1] | Interaction with Oleic Acid [2] | Mean Size by Intensity [3] [nm] | Part [3] [%] | other results
1 | CC(=O)NC1CCSC1=O (racemic) [DL-N-Acetylhomocysteine thiolactone, reference compound] | 10.70 |  |  |  | 
2 | N=C(N)NCCC[C@H](NC(=O)CN)C(=O)O [Gly-Arg] (H-Gly-Arg-OH; N-terminus and C-terminus assumed) |  |  |  |  | logP: -5.06
3 | NCC(=O)N[C@@H](Cc1ccccc1)C(=O)O [Gly-Phe, reference compound] (H-Gly-Phe-OH; N-terminus and C-terminus assumed) |  |  |  |  | logP [4]: -0.65
4 | N=C(N)NC(N)=O.O.O=S(=O)(O)O [N-Guanylurea sulfate salt hydrate] |  | X, E |  |  | logP (physchem): 3.54
5 | N=C(N)NCCC[C@H](NC(=O)[C@@H](N)Cc1ccc(O)cc1)C(=O)O [Tyr-Arg (Kyotorphin acetate), L-tyrosyl-L-arginine] | 8.54 | X, E |  |  | logP (physchem): -4
6 | CC(=O)O.CNC(=N)NCCC[C@H](N)C(=O)O [N-ω-monomethyl-L-arginine acetate] | 8.49 | X, E |  |  | 
7 | CN(C)C(=N)NC(=N)N.Cl [1,1-Dimethylbiguanide hydrochloride, reference compound] | 9.20 |  |  |  | 
8 | N=C(N)NCCC[C@H](NC(=O)[C@@H](N)Cc1c[nH]cn1)C(=O)O [His-Arg] (H-His-Arg-OH; N-terminus and C-terminus assumed) |  |  |  |  | logP: -5.74
9 | C[C@@H](O)[C@H](N)C(=O)N[C@@H](CCCCN)C(=O)N1CCC[C@H]1C(=O)N[C@@H](CCCNC(=N)N)C(=O)O [Thr-Lys-Pro-Arq (Tuftsin)] (H-TKPR-OH; N-terminus and C-terminus assumed) |  |  |  |  | logP: -3.98
10 | NC(=NCCC[C@H](N)C(=O)O)N[N+](=O)[O-] [N-ω-Nitro-L-arginine] | 11.95 | X, E | 85.5 | 46.7 | 
11 | NCC(=O)N[C@@H](Cc1c[nH]cn1)C(=O)O [Gly-His] (H-Gly-His-OH; N-terminus and C-terminus assumed) |  |  |  |  | logP: -2.42
12 | N=C(N)NCCCC(=O)O [4-Guanidinobutyric acid] | 10.41 | X, E |  |  | logP (physchem): -3.44
13 | N=C(N)NCCC(=O)O [3-Guanidinopropionic acid] | 11.71 | X, E | 153 | 64.7 | logP (physchem): -3.77
14 | NCCCC[C@H](N)C(=O)N[C@@H](CCCN=C(N)N)C(=O)O [Lys-Arq acetate] (H-Lys-Arg-OH) |  |  |  |  | logP: -5.06
15 | CN/C(=N\[N+](=O)[O-])NCc1cnc(Cl)s1 [Clothianidine, (E)-1-(2-chlor-1,3-thiazol-5-ylmethyl)-3-methyl-2-nitroguanidine] | 9.81 | X, E | 153 | 53.9 | Dissolved (H2O) [5]: (X); logP [4]: -2.03
16 | CC(=O)O.CC(=O)O.N=C(NCCCCCCNC(=N)NC(=N)Nc1ccc(Cl)cc1)NC(=N)Nc1ccc(Cl)cc1 [Chlorhexidine diacetate, 1,1′-hexamethylenbis[5-(4-chlorphenyl)-biguanide], reference compound] | 6.51 and 9.58 | X, S |  |  | Dissolved (H2O) [5]: (X)
17 | N=C(N)NCCC[C@H](N)C(=O)N[C@@H](Cc1ccccc1)C(=O)O [Arg-Phe] |  |  |  |  | logP [4]: -3.34
18 | N=C(N)NCCCCN.O=S(=O)(O)O [Agmatin sulfate] | 10.53 | X, S |  |  | logP (physchem): -1.81

Row | Compound | pH [1] | Interaction with Oleic Acid [2] | Mean Size by Intensity [3] [nm] | Part [3] [%] | other results
19 | N=C(N)N[C@@H](CCC(=O)O)C(=O)O [(S)-(−)-2-Guanidinoglutaric acid] | 10.15 | X, E |  |  | logP [4, 6]: -3.14
20 | Cc1ccccc1NC(=N)Nc1ccccc1C [1,3-Di-o-tolyl-guanidine] |  |  |  |  | logP [4, 6]: 3.01
21 | C[C@H](NC(=O)[C@H](Cc1ccccc1)NC(=O)[C@@H](N)CCCNC(=N)N)C(=O)O [Arg-Phe-Ala acetate] (H-Arg-Phe-Ala-OH; N-terminus and C-terminus assumed) |  |  |  |  | logP: -3.6
22 | Argininosuccinic acid disodium salt hydrate | 9.93 | X, E | 721 | 74.6 | 
23 | O=C(O)CCCNC1=NCCN1 [4-(4,5-Dihydro-1H-imidazol-2-ylamino)-butyric acid] | 8.63 and 11.5 | X, E | 627 | 58.9 | logP [4, 6]: -1.6
24 | N=C(N)NCCCCCC(=O)O [6-Guanidinohexanoic acid] | 9.01 | (X), E |  |  | Dissolved (H2O) [5]: (X); logP [4, 6]: -3.6
25 | 4-(4,6-Diamino-2,2-dimethyl-2H-[1,3,5]triazine-1-yl | 11.28 | X, E, S |  |  | Dissolved (H2O) [5]: (X)
26 | NC(N)=NOCC[C@H](N)C(=O)O [L-Canavanine free base] | 8.67 and 9.04 | (X), S, E and X, E |  |  | 
27 | Cc1ccccc1NC(=N)NC(=N)N [1-(o-Tolyl)biguanide] | 11.53 | X, E | 850 | 95.5 | Dissolved (H2O) [5]: (X); logP [4, 6]: 1.41
28 | Cl.N=C(N)Nc1ccc(C(=O)O)cc1 [4-Guanidinobenzoic acid hydrochloride] | 11.19 | X, E |  |  | Dissolved (H2O) [5]: (X); logP [4, 6]: 0.604
29 | Cc1c[nH]cn1 | 8.90 | X, E/S | 224 | 96.7 | 
30 | Nc1nc(N)nc(N)n1 [Melamine] | 8.25 | X, S |  |  | Dissolved (H2O) [5]: (X); logP (physchem): -0.961
31 | NC(N)=NCCCC[C@H](N)C(=O)O [H-Homoarg-OH] | 8.66 | X, E | 107 | 68.5 | 
32 | CN/C(=N/CCSCc1nc[nH]c1C)NC#N [Cimetidine, 2-cyan-1-methyl-3-[2-(5-methylimidazol-4-ylmethylsulfanyl)-ethyl]-guanidine, reference compound] | 9.54 | X, E | 239 | 67.2 | Dissolved (H2O) [5]: ((X)); logP (physchem): 0.19
33 | Aminophenylacetic acid [reference compound] | 9.23 | ((X)) |  |  | Dissolved (H2O) [5]: (X); log P [4]: 0.73
34 | c1c[nH]cn1 [Imidazole] |  |  |  |  | logP (physchem): -0.67
35 | Poly-L-arginine HCl [Poly-L-arginine HCl (70.000-150.000 MW)] |  | X, S |  |  | 
36 | NC(N)=NCC(=O)O [Guanidine acetic acid] | 6.20 | (X), E/S |  |  | Dissolved (H2O) [5]: ((X)); log P [4]: −2.387

The next lines start with results.

Row | pH [1] | Interaction with Oleic Acid [2] | Mean Size by Intensity [3] [nm] | Part [3] [%] | Compound | other results
37 | 9.12 | X, E | 349 | 94.1 | CC(=N)NCCCC[C@H](N)C(=O)O [L-NIL] | 
38 | 5.61 and 8.61 | X, S |  |  | polyhexamethylenbiguanide (PHMB) [Polyhexanide −5% (2300 bis 3100 MW), reference compound] | 
39 |  | X, S |  |  | NC(N)=NS(=O)(=O)c1ccc(N)cc1 [Sulfaguanidine, 4-amino-N-(diaminomethylen)benzensulfonamide, reference compound] | logP (physchem): -1.24
40 | 6.70 | X, E | 435 | 94.7 | C[C@@H](N[C@@H](CCCN=C(N)N)C(=O)O)C(=O)O [D-(+)-Octopine] | 
41 | 8.59 |  | 341 | 96.3 | NC(N)=O [Urea, reference compound] | Interaction with Oleic Acid ([2]; 60° C.): ((X))
42 | 11.35 | X, S |  |  | COC(=O)[C@H](N)CCCNC(=N)N.Cl.Cl [D-arginine methyl ester dihydrochloride] | logP (physchem): -2.11
43 |  | (X), E |  |  | CN(CC(=O)O)C(=N)N [Creatine] | logP (physchem): -0.884
44 | 9.45 | X, E | 22.9 | 87.4 | CN(C)C(N)=NCCC[C@H](N)C(=O)O.Cl.Cl [NG,NG-Dimethylarginine dihydrochloride] | 
45 | 7.66 | X, E |  |  | [H]/N=C(\N/C(=N/[H])Nc1ccc(Cl)cc1)NC(C)C [Proguanil hydrochloride, 1-(4-chlorphenyl)-5-isopropylbi-guanide, reference compound] | Dissolved (H2O) [5]: (X); logP [4, 6]: 2.53
46 |  | X, S, (E) | 426 | 60.7 | CC(=O)NCC(=O)O.CC(=O)NCC(=O)O.N=C(N)c1ccc(N=NNc2ccc(C(=N)N)cc2)cc1 [Diminazene aceturate (basic), Diminazene aceturate, reference compound] | 
47 | 12.71 | X, E |  |  | N=C(N)N [Guanidinehydrochloride] | logP (physchem): -1.03
48 | 11.05 | X, E | 113 | 87.2 | Cl.N=C(N)NC[C@H](N)C(=O)O [L-2-Amino-3-guanidinopropionic acid hydrochloride] | logP (physchem): -3.81
49 | 9.51 | X, E, S | 325 | 93.9 | NC(=NCC[C@H](N)C(=O)O)NO [N-ω-Hydroxy-L-norarginine] | 
